The source of these data is patent US11234971B2, “Methods of treating cancer comprising administration of a glucocorticoid receptor modulator and a cancer chemotherapy agent” (Corcept Therapeutics Incorporated, priority 2018, dated 2022).

In experiment [1] the test system is OVCAR-5 human ovarian cancer cells. Put plainly: OVCAR-5 cell growth (Cell Titer-Glo) with chemotherapy agents with or without dexamethasone and relacorilant. The class given is cell-based. As to conditions: for IC50 (decrease in IC50 of the agent from dexamethasone-alone to relacorilant + dexamethasone) / Max effect (increase in maximal cell toxicity of the agent from dexamethasone-alone to relacorilant + dexamethasone): OVCAR-5, 100 nM dexamethasone, 300 nM relacorilant; for Max effect (increase in maximal cell toxicity of the agent from dexamethasone-alone to relacorilant + dexamethasone): high doses of chemotherapeutic. How it is done: The initial cell density was chosen to be low enough to allow for several population doublings (typically 3 to 5) during the indicated incubation period. […] After 48 hours of incubation, serially diluted test agents in growth medium were added to each well. After 72 hours of culture, the plated cells and Cell Titer-Glo® (Promega G7571) reagents were brought to room temperature to equilibrate for 30 minutes. 200 μL of Cell Titer-Glo® reagent was then added to each well, the plate was shaken for two minutes, and then left to equilibrate for ten minutes. The Cell Titer-Glo® cell viability assay uses ATP levels to determine cell numbers. After this equilibration, luminescence was read on the Biotech Synergy II microplate reader. The percent control (% C) of cell growth for each test concentration was calculated relative to untreated wells. All tests were performed in quadruplicate. Individual assay plates were evaluated for appropriate signal and well-to-well variance in the control wells for quality control.
On the technique in general: Cellular ATP, detected with luciferase, serves as a proxy for viable cell number.

For experiment [2], the system named is whole blood gene expression. Put plainly: Whole blood gene expression after 28 days of enzalutamide in cancer patients. In kind it is in vivo. As to conditions: human cancer patients, all p-values greater than 0.5. From the text:
Enzalutamide is an androgen receptor antagonist used in the treatment of hormone-sensitive cancers such as prostate cancer. […] The small circular markers indicate the change in gene expression for individual genes. None of the gene expression levels changes following enzalutamide (as compared to baseline levels) reach significance (all p-values are greater than 0.5).

Experiment [3] has as its system MIA PaCa-2 xenograft. The experiment in a line: MIA PaCa-2 xenograft tumor growth in immunodeficient mice. The class given is in vivo. As to conditions: single agent. From the text:
The present example, Example 3, provides results of administration of the glucocorticoid receptor modulator relacorilant to cancerous cells. […] The MIA PaCa-2 xenograft model uses MIA PaCa-2 cell-line cells (pancreatic tumor cells derived from a pancreatic adenocarcinoma from a patient) engrafted into immunodeficient mice. The ovarian OVCAR-5 cell line is derived from a human epithelial carcinoma of the ovary, and was established from ascitic fluid obtained (prior to cytotoxic treatment) from a patient with progressive ovarian adenocarcinoma.
FIG. 10A. Relacorilant sensitizes the MIA PaCa-2 xenograft to paclitaxel. Tumor volume of PaCa-2 xenograft tumors implanted in immunodeficient mice is shown as a function of time (days) after implantation in the presence of vehicle (filled circles), paclitaxel (7.5 mg/kg; filled squares), relacorilant alone (upwardly pointing triangles), and relacorilant+7.5 mg/kg paclitaxel (downwardly pointing triangles). 7.5 mg/kg paclitaxel was administered three times (at the days indicated by the dashed vertical lines, indicating days 8, 12, and 16 following tumor implantation into the mice).
FIG. 10B. Relacorilant with Paclitaxel Reduces MIA PaCa-2 xenograft Tumor Volume. Initial tumor volume of PaCa-2 xenograft tumors implanted in immunodeficient mice was less than 400 cubic millimeters (mm^3). […] Tumor size progression is thus indicated by lines descending from the top (100%) value. The tumor-bearing mice were treated with vehicle, relacorilant (30 mg/kg every day), paclitaxel (three doses of 7.5 mg/kg paclitaxel, one dose administered on each of the days indicated in FIG. 10A), and the combination relacorilant (30 mg/kg every day) with paclitaxel (7.5 mg/kg doses of paclitaxel each administered on days 8, 12, and 16 post implantation). […] Xenograft tumor growth was slowed by combined relacorilant+paclitaxel as compared to either paclitaxel alone or relacorilant alone. Relacorilant thus enhanced sensitivity to paclitaxel in the pancreatic MIA PaCa-2 xenograft model.

For `O=c1[nH]cc(F)c(=O)[nH]1` [5-FU], in experiment [1], the “IC50 (decrease in IC50 of the agent from dexamethasone-alone to relacorilant + dexamethasone)” value was “+ (~10-59% decrease in IC50 from the dexamethasone-alone to the relacorilant + dexamethasone treatments)” and the “Max effect (increase in maximal cell toxicity of the agent from dexamethasone-alone to relacorilant + dexamethasone)” value is on record as “−”. In the case of `Cc1c[nH]c(-c2cnc(NCCNc3ccc(C#N)cn3)nc2-c2ccc(Cl)cc2Cl)n1` [CHIR-99021], in experiment [1], the “IC50 (decrease in IC50 of the agent from dexamethasone-alone to relacorilant + dexamethasone)” value is “−” and the “Max effect (increase in maximal cell toxicity of the agent from dexamethasone-alone to relacorilant + dexamethasone)” value is “−”. Consider `CCN(CC)CCCC(C)Nc1ccnc2cc(Cl)ccc12` (stereo not shown) [Chloroquine], for which the “IC50 (decrease in IC50 of the agent from dexamethasone-alone to relacorilant + dexamethasone)” value in experiment [1] is “−”. For the compound `COc1cccc2c1C(=O)c1c(O)c3c(c(O)c1C2=O)C[C@@](O)(C(=O)CO)C[C@@H]3O[C@H]1C[C@H](N)[C@H](O)[C@H](C)O1` [Doxorubicin], the “IC50 (decrease in IC50 of the agent from dexamethasone-alone to relacorilant + dexamethasone)” value in experiment [1] was “+ (~10-59% decrease in IC50 from the dexamethasone-alone to the relacorilant + dexamethasone treatments)”.

Regarding `C=C1C[C@@H]2CC[C@@]34C[C@H]5O[C@H]6[C@@H](O3)[C@H]3O[C@H](CC[C@@H]3O[C@H]6[C@H]5O4)CC(=O)C[C@@H]3[C@@H](OC)[C@@H](C[C@H](O)CN)O[C@H]3C[C@H]3O[C@@H](CC[C@@H]1O2)C[C@@H](C)C3=C` [Eribulin], the “IC50 (decrease in IC50 of the agent from dexamethasone-alone to relacorilant + dexamethasone)” value in experiment [1] is “++ (>60% decrease in IC50 from the dexamethasone-alone to the relacorilant + dexamethasone treatments)”.

With `C#Cc1cccc(Nc2ncnc3cc(OCCOC)c(OCCOC)cc23)c1` [Erlotinib], the “IC50 (decrease in IC50 of the agent from dexamethasone-alone to relacorilant + dexamethasone)” value in experiment [1] is “−”.

As to `COc1cc([C@@H]2c3cc4c(cc3[C@@H](O[C@@H]3O[C@@H]5CO[C@@H](C)O[C@H]5[C@H](O)[C@H]3O)[C@H]3COC(=O)[C@H]23)OCO4)cc(OC)c1O` [Etoposide], in experiment [1], the “IC50 (decrease in IC50 of the agent from dexamethasone-alone to relacorilant + dexamethasone)” value is “+ (~10-59% decrease in IC50 from the dexamethasone-alone to the relacorilant + dexamethasone treatments)” and the “Max effect (increase in maximal cell toxicity of the agent from dexamethasone-alone to relacorilant + dexamethasone)” value is reported as “−”. In the case of `O=C(O)c1ccc(-c2c[nH]c3ncc(-c4ccccc4)cc23)cc1C1CCCC1` [GSK650394], in experiment [1], the “IC50 (decrease in IC50 of the agent from dexamethasone-alone to relacorilant + dexamethasone)” value is “−” and the “Max effect (increase in maximal cell toxicity of the agent from dexamethasone-alone to relacorilant + dexamethasone)” value is “−”. In the case of `CCc1c2c(nc3ccc(OC(=O)N4CCC(N5CCCCC5)CC4)cc13)-c1cc3c(c(=O)n1C2)COC(=O)[C@]3(O)CC` [Irinotecan], in experiment [1], the “IC50 (decrease in IC50 of the agent from dexamethasone-alone to relacorilant + dexamethasone)” value is “+ (~10-59% decrease in IC50 from the dexamethasone-alone to the relacorilant + dexamethasone treatments)” and the “Max effect (increase in maximal cell toxicity of the agent from dexamethasone-alone to relacorilant + dexamethasone)” value was “−”. The matching figures for `CS(=O)(=O)CCNCc1ccc(-c2ccc3ncnc(Nc4ccc(OCc5cccc(F)c5)c(Cl)c4)c3c2)o1` [Lapatinib]: “+ (~10-59% decrease in IC50 from the dexamethasone-alone to the relacorilant + dexamethasone treatments)” and “−”. Consider `O=C(c1cc(Cc2n[nH]c(=O)c3ccccc23)ccc1F)N1CCN(C(=O)C2CC2)CC1` [Olaparib], for which, in experiment [1], the “IC50 (decrease in IC50 of the agent from dexamethasone-alone to relacorilant + dexamethasone)” value is on record as “−” and the “Max effect (increase in maximal cell toxicity of the agent from dexamethasone-alone to relacorilant + dexamethasone)” value is recorded as “−”. Turning to `Nc1nc2[nH]cc(CCc3ccc(C(=O)N[C@@H](CCC(=O)O)C(=O)O)cc3)c2c(=O)[nH]1` [Pemetrexed], in experiment [1], the “IC50 (decrease in IC50 of the agent from dexamethasone-alone to relacorilant + dexamethasone)” value is recorded as “++ (>60% decrease in IC50 from the dexamethasone-alone to the relacorilant + dexamethasone treatments)”. Consider `CC(C)(C)c1[nH]cnc1/C=c1\[nH]c(=O)/c(=C/c2ccccc2)[nH]c1=O` [Plinabulin], for which the “IC50 (decrease in IC50 of the agent from dexamethasone-alone to relacorilant + dexamethasone)” value in experiment [1] was “−”. Take `CC(=O)Nc1cccc(-n2c(=O)n(C3CC3)c(=O)c3c(Nc4ccc(I)cc4F)n(C)c(=O)c(C)c32)c1` [Trametinib]: in experiment [1], the “IC50 (decrease in IC50 of the agent from dexamethasone-alone to relacorilant + dexamethasone)” value is on record as “−” and the “Max effect (increase in maximal cell toxicity of the agent from dexamethasone-alone to relacorilant + dexamethasone)” value was “−”. On to `CC1(C)CCC(CN2CCN(c3ccc(C(=O)NS(=O)(=O)c4ccc(NCC5CCOCC5)c([N+](=O)[O-])c4)c(Oc4cnc5[nH]ccc5c4)c3)CC2)=C(c2ccc(Cl)cc2)C1` [Venetoclax], for which, in experiment [1], the “IC50 (decrease in IC50 of the agent from dexamethasone-alone to relacorilant + dexamethasone)” value is “+ (~10-59% decrease in IC50 from the dexamethasone-alone to the relacorilant + dexamethasone treatments)” and the “Max effect (increase in maximal cell toxicity of the agent from dexamethasone-alone to relacorilant + dexamethasone)” value is reported as “−”.

For `CCC1=C[C@@H]2CN(C1)Cc1c([nH]c3ccccc13)[C@@](C(=O)OC)(c1cc3c(cc1OC)N(C)[C@H]1[C@@](O)(C(=O)OC)[C@H](OC(C)=O)[C@]4(CC)C=CCN5CC[C@]31[C@@H]54)C2` [Vinorelbine], the “IC50 (decrease in IC50 of the agent from dexamethasone-alone to relacorilant + dexamethasone)” value in experiment [1] is reported as “+ (~10-59% decrease in IC50 from the dexamethasone-alone to the relacorilant + dexamethasone treatments)”.

Turning to `N.N.O=C([O-])C1(C(=O)[O-])CCC1.[Pt+2]` [carboplatin], in experiment [1] (OVCAR-5 with 100 nM dexamethasone, 1 nM to 2187 nM carboplatin), the cell viability result is “dose dependent”. `N.N.[Cl][Pt][Cl]` [cisplatin]: in experiment [1], the “IC50 (decrease in IC50 of the agent from dexamethasone-alone to relacorilant + dexamethasone)” value was “+ (~10-59% decrease in IC50 from the dexamethasone-alone to the relacorilant + dexamethasone treatments)” and the “Max effect (increase in maximal cell toxicity of the agent from dexamethasone-alone to relacorilant + dexamethasone)” value is on record as “+ (consistent ~0-40% increase in toxicity at high doses of chemotherapeutic from the dexamethasone-alone to the relacorilant + dexamethasone treatments)”. For the compound `CNC(=O)c1ccc(N2C(=S)N(c3ccc(C#N)c(C(F)(F)F)c3)C(=O)C2(C)C)cc1F` [enzalutamide], the “changes in gene expression levels compared to baseline” value in experiment [2] is recorded as “did not result in any significant changes”. With `CC(=O)O[C@H]1C(=O)[C@@]2(C)[C@H]([C@H](OC(=O)c3ccccc3)[C@]3(O)C[C@H](OC(=O)[C@H](O)[C@@H](NC(=O)c4ccccc4)c4ccccc4)C(C)=C1C3(C)C)[C@]1(OC(C)=O)CO[C@@H]1C[C@@H]2O` [paclitaxel], in experiment [3] (paclitaxel 7.5 mg/kg on days 8, 12 and 16), the “tumor growth (tumor volume over time)” value is “ineffective in delaying tumor growth”. Besides, the “time to progression (fraction of tumors whose volume remained below 400 mm^3)” value in experiment [3] (relacorilant 30 mg/kg every day or paclitaxel 7.5 mg/kg on days 8, 12, 16) is given as “ineffective alone in delaying tumor growth”.
